# Reference: patent US4562191A (priority 1983, dated 1985)
# Where “and” joins values, the source holds several entries; their conditions need not be identical. Equal entries are not always repeated.
# System: Male CD-1 albino mice
# Set-up: species or system mouse (CD-1 albino)
# Conditions: mouse, in vivo
SMILES,No. of animals exhibiting contortions out of total,Mean number of contortions ± S.D.
CCCCC1C(=O)N(c2ccccc2)N(c2ccccc2)C1=O [Phenylbutazone],3/6 and 5/6,
CCC(=O)O[C@](Cc1ccccc1)(c1ccccc1)[C@H](C)CN(C)C [D-propoxyphene],2/6,2.5 ± 2.1
"CC(=O)Oc1ccccc1C(=O)O [Acetyl-salicylic acid, acetylsalicylic acid]",4/6,13.5 ± 11.1
